Patent US10030103B2, “Stable helical ionic polypeptides” (The Board of Trustees of the University of Illinois, priority 2010, dated 2018)

Experiments:
[1] = Circular dichroism (CD) analysis of polypeptide conformation in aqueous solution; assay type: physicochemical
Protocol: CD measurements were carried out on a JASCO J-700 CD spectrometer in a quartz disc with a light path length of 1 cm at 0.01-0.1 mg/mL in DI water at room temperature or under conditions otherwise indicated.
The CD study was performed on a JASCO J-700 or on a J-720 CD spectrometer. Polymer samples were prepared at concentrations of 0.01-0.1 mg/mL at pH 3 unless otherwise specified. The solution was placed in a quartz cell with light path of 0.2 cm. The mean residue molar ellipticity of each polymer was calculated based on the measured apparent ellipticity, the molar concentration of polymer and the m.w. of the repeating unit. The CD experiments were carried out at room temperature unless otherwise specified. For temperature-dependency study, the temperature of the sample chamber which hosts the quartz cell was controlled by a water bath (from 4° C. to 70° C.).
The samples were equilibrated at corresponding temperature for at least 10 min before the CD measurements. For the sample preparations, the polymers were dissolved in DI water or in a solution containing NaCl, urea or methanesulfonic acid (MSA). For the pH-dependency study, the pH of the polymer solution was tuned by the addition of a concentrated HCl or NaOH solution.
The CD study was performed on a JASCO J-700 and J-720 CD spectrometer. Polymer samples were prepared at a concentration of 0.05 mg/mL in general unless otherwise specified. The solution was placed in a quartz disc with light path of 0.5 cm. Mean residue molar ellipticity was calculated based on the ellipticity obtained, concentration of polymer and the molar weight of the repeating unit.
The CD study was performed on a JASCO J-700 and J-720 CD spectrometer. The polymer samples were prepared at concentrations of 0.01-0.1 mg/mL in general unless otherwise specified. The solution was placed in a quartz cell with a path length of 0.5 cm. […] For the helix-temperature dependency study, the temperature of the sample chamber where the quartz cell was placed was controlled by a water bath (from 4° C. to 70° C.). […]

[2] = system: COS-7 cells; assay: In vitro transfection of COS-7 cells with polymer/DNA complexes (pCMV-Luc, luciferase expression); assay type: cell-based; details: listed as PVBLG40-1
Protocol: DNA/polymer complexes were prepared at room temperature by dissolving DNA (0.35 μg) in 150 mM NaCl, 20 mM HEPES (175 μL). An equal volume of 25-kDa branched PEI, lipofectamine 2000 or PVBLGn-X in 150 mM NaCl, 20 mM HEPES was added to achieve the desired weight ratio. The final complexes were incubated at room temperature for 15 min before further use. […] The transfection medium was replaced with fresh serum-supplemented growth medium 4 h post-transfection.
Luciferase expression was quantified 24 h post-transfection using the Promega Bright-Glo luciferase assay system (Promega, Madison, Wis.). Luciferase activity was measured in relative light units (RLU) using a PerkinElmer plate reader with luminescence capabilities (Waltham, Mass.). Results were normalized to total cell protein using the Pierce BCA protein assay kit (Rockford, Ill.). Transfections were performed in triplicate.

[3] = system: DHSα E. coli; assay: Inhibition of bacterial growth in Luria broth (OD650); assay type: cell-based; details: up to 100 μg/mL, seven hours, 37° C.
Protocol: Luria broth (1×) was prepared containing known concentrations of the three polymers between 0 μg/mL and 100 μg/mL and dispensed (200 μL aliquots) in triplicate into the wells of a clear polystyrene 96-well plate. Separate wells containing the antibiotic kanamycin at 50 μg/mL were also prepared as a control. The wells were then inoculated with DHSα E. coli and left to grow at 37° C. with agitation. After seven hours, the plate was removed and the absorbance of 650 nm light was measured for each well (OD650). In general, as bacterial growth was inhibited, the resulting OD650 decreased. The average OD650 was then plotted for each sample (FIG. 50).

For “Poly(γ-(4-aminoethylthiopropoxyl)-benzyl-L-glutamate) [(PAOBLG-AET)10]”, the “pH dependence of −[θ]222 / helical conformation” value ([1]; pH range as stated in the value) was “remained unchanged when the solution's pH was increased from 1 to 8”.

For poly(L-lysine) [PLL75], the “conformation by CD” value ([1]; aqueous solution, pH 1) was “completely random coil conformation”.

For “poly(γ-(4-(1-hexanol-6-aminomethyl))benzyl-L-glutamate) [(PVBLG-1)40]”, the “transfection efficiency” value [2] was “on par with 25-kDa branched polyethylenimine (PEI)”.

For “poly(γ-(4-(1-hexanol-6-aminomethyl))benzyl-L-glutamate) [PVBLG-1]”, the antimicrobial properties [3] was “Neither PVBLGn-1 nor PVBLGn-8 displayed antimicrobial properties”.

In the case of poly-L-lysine [(PLL)60], the Helical content ([1]; Table 9-2, (−[θ]222 + 3000)/39,000) is reported as 0%.
